Legend:
Cyclic GMP-AMP synthase [1] = target: T1, Cyclic GMP-AMP synthase (Homo sapiens, UniProt Q8N884); assay: Inhibition of CGAS in human THP1 cells transfected with interferon stimulatory DNA and measured after 16 hrs by Gaussia luciferase reporter gene assay; assay type: cell-based
Cyclic GMP-AMP synthase [2] = target: T1, Cyclic GMP-AMP synthase; assay: Inhibition of recombinant His6-SUMO tagged human CGAS expressed in Escherichia coli BL21/pLys cells incubated for 20 mins by Kinase Glo chemiluminescence assay
Cyclic GMP-AMP synthase [3] = target: T1, Cyclic GMP-AMP synthase; assay: Inhibition of CGAS in human THP1 cells transfected with mock Sendai virus and measured after 16 hrs by Gaussia luciferase reporter gene assay; assay type: cell-based

T1 sequence (Q8N884 whole entry): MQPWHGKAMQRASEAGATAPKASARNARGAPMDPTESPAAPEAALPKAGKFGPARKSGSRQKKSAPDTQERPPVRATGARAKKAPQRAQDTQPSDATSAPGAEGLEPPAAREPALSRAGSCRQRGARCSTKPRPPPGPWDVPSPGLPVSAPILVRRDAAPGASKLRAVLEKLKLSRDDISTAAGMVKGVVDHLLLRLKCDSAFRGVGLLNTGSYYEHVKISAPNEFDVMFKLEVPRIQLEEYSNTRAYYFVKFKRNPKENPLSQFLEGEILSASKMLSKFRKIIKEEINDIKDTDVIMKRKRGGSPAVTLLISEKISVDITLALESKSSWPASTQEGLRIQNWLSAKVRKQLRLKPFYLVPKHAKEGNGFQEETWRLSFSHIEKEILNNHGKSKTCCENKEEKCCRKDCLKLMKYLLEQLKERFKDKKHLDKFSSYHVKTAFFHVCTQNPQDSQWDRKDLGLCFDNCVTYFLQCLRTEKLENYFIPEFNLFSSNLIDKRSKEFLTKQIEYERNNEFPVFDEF

SMILES	IC50 (Cyclic GMP-AMP synthase [1]) [µM]	IC50 (Cyclic GMP-AMP synthase [2]) [µM]	IC50 (Cyclic GMP-AMP synthase [3]) [µM]
C[S+]([O-])c1ncc(COc2cc(/C=C3\Sc4ncccc4C3=O)c(Br)cc2O)cn1 (stereo unspecified)	≤ 2.5	≤ 0.5	2.5 to 10
CN1C(=O)S/C(=C\c2cc3c(Cc4cnc(N)nc4)c[nH]c3c(F)c2Br)C1=O	≥ 10	≤ 0.5	≥ 10
O=C1/C(=C/c2cc(OCc3cnc(NCc4cccnc4)nc3)c(O)c(F)c2Br)Sc2ncccc21	2.5 to 10	≤ 0.5	≥ 10
CN1C(=O)S/C(=C\c2cc(OCc3cnc(N)nc3)c(O)c(F)c2Br)C1=O	≤ 2.5	≤ 0.5	≥ 10
Cc1nc(N)ncc1COc1cc(/C=C2\SC(=O)N(C)C2=O)c(Br)cc1O	≤ 2.5	≤ 0.5	≥ 10
CC(C)C(=O)N1CCC(COc2cc(/C=C3\SC(=O)N(C)C3=O)c(Br)cc2O)CC1	2.5 to 10	≥ 10	≥ 10
CN1C(=O)S/C(=C\c2cc(OCc3cnc(NC4CC4)nc3)c(O)cc2Br)C1=O	≤ 2.5	0.5 to 10	≥ 10
CN1C(=O)S/C(=C\c2cc(OCc3cncnc3)c(O)c(F)c2Br)C1=O	2.5 to 10	≤ 0.5	–
CC(Oc1cc(/C=C2\Sc3ncccc3C2=O)c(Br)c(F)c1O)c1cnc(N)nc1 (stereo unspecified)	2.5 to 10	≤ 0.5	–
CN1C(=O)S/C(=C\c2cc(OCc3cnc4ccccc4c3)c(O)cc2Br)C1=O	2.5 to 10	≥ 10	≥ 10
COCCNc1ncc(COc2cc(/C=C3\SC(=O)N(C)C3=O)c(Br)c(F)c2O)cn1	2.5 to 10	≤ 0.5	≥ 10
CN1C(=O)S/C(=C\c2cc(OCc3cccnc3)c(O)c(F)c2Br)C1=O	2.5 to 10	≤ 0.5	–
CN1C(=O)S/C(=C\c2cc(OCc3cncnc3N)c(O)c(F)c2Br)C1=O	≥ 10	≤ 0.5	–
CN1C(=O)S/C(=C\c2cc(OCC3CCCCC3)c(O)cc2Br)C1=O	2.5 to 10	≥ 10	2.5 to 10
CC(Oc1cc(/C=C2\Sc3ncc(F)cc3C2=O)c(Br)c(F)c1O)c1cnc(N)nc1 (stereo unspecified)	2.5 to 10	≤ 0.5	–
O=C1/C(=C/c2cc(OC(F)(F)F)c(O)cc2Br)Sc2ncccc21	2.5 to 10	0.5 to 10	≥ 10
CN1C(=O)S/C(=C\c2cc(OCc3cnc([S+](C)[O-])nc3)c(O)cc2Br)C1=O (stereo unspecified)	2.5 to 10	≤ 0.5	≥ 10
Cc1nc(N)ncc1COc1cc(/C=C2\SC(=O)N(C)C2=O)c(Br)c(F)c1O	≤ 2.5	≤ 0.5	≥ 10
C[S+]([O-])c1ncc(COc2cc(/C=C3\Sc4ncccc4C3=O)c(Br)c(F)c2O)cn1 (stereo unspecified)	2.5 to 10	0.5 to 10	≥ 10
CN1C(=O)S/C(=C\c2cc(OCc3cnc([S+](C)[O-])nc3N)c(O)c(F)c2Br)C1=O (stereo unspecified)	≥ 10	≤ 0.5	–
CN1C(=O)S/C(=C\c2cc(OCc3ncc(N)cn3)c(O)cc2Br)C1=O	2.5 to 10	≥ 10	≥ 10
CN1C(=O)S/C(=C\c2cc(OCc3cnc(NCc4ccccn4)nc3)c(O)cc2Br)C1=O	2.5 to 10	≤ 0.5	≥ 10
Cc1ncc(COc2cc(/C=C3\Sc4ncccc4C3=O)c(Br)cc2O)cn1	2.5 to 10	≤ 0.5	–
CNc1ncc(COc2cc(/C=C3\Sc4ncccc4C3=O)c(Br)c(F)c2O)cn1	2.5 to 10	≤ 0.5	≥ 10

SMILES	IC50 (Cyclic GMP-AMP synthase [1]) [µM]	IC50 (Cyclic GMP-AMP synthase [2]) [µM]	IC50 (Cyclic GMP-AMP synthase [3]) [µM]
CN1C(=O)S/C(=C\c2cc3c(-c4cnc(N)nc4)c[nH]c3c(F)c2Br)C1=O	2.5 to 10	≤ 0.5	≥ 10
O=C1/C(=C/c2cc(CC(F)(F)F)c(O)cc2Br)Sc2ncccc21	2.5 to 10	≤ 0.5	≥ 10
CC(Oc1cc(/C=C2\Sc3ncccc3C2=O)c(Br)cc1O)c1cnc(N)nc1 (stereo unspecified)	≤ 2.5	≤ 0.5	≥ 10
CN1C(=O)S/C(=C\c2cc(OCc3cnc(NN)nc3)c(O)cc2Br)C1=O	≤ 2.5	≤ 0.5	≥ 10
CN1C(=O)S/C(=C\c2cc(OCc3cncnc3)c(O)cc2Br)C1=O	≤ 2.5	≤ 0.5	≥ 10
Nc1ncc(COc2cc(/C=c3\sc4nccn4c3=O)c(Br)cc2O)cn1	≤ 2.5	0.5 to 10	–
Cc1ncc(COc2cc(/C=C3\Sc4ncccc4C3=O)c(Br)c(F)c2O)cn1	≤ 2.5	≤ 0.5	≥ 10
O=C1/C(=C/c2cc(OCc3cnc(NCCO)nc3)c(O)cc2Br)Sc2ncccc21	≤ 2.5	≤ 0.5	≥ 10
CN1C(=O)S/C(=C\c2cc(OCc3cnc(N)nc3)c(O)cc2Br)C1=O	≤ 2.5	≤ 0.5	≥ 10
COc1cc(/C=C2\SC(=O)N(C)C2=O)c(Br)cc1O	≤ 2.5	≤ 0.5	≥ 10
CN1C(=O)S/C(=C\c2cc(OCc3cnc(N)nc3)c(Oc3cnc(N)s3)cc2Br)C1=O	2.5 to 10	0.5 to 10	≥ 10
COc1cc(/C=c2\sc3nccn3c2=O)c(Br)cc1O	2.5 to 10	≤ 0.5	–
CN1C(=O)S/C(=C\c2cc(OCc3cnc(Cl)nc3)c(O)cc2Br)C1=O	2.5 to 10	≤ 0.5	≥ 10
CN1C(=O)S/C(=C\c2cc(OCC(=O)c3cnc(N)nc3)c(O)c(F)c2Br)C1=O	2.5 to 10	0.5 to 10	–
Nc1ncc(COc2cc(/C=C3\Sc4ncccc4C3=O)c(Br)c(F)c2O)cn1	≤ 2.5	≤ 0.5	≥ 10
CCOc1cc(/C=C2\SC(=O)N(C)C2=O)c(Br)cc1O	≤ 2.5	≤ 0.5	–
O=C1/C(=C/c2cc(OCc3cnc(NCc4ccncc4)nc3)c(O)cc2Br)Sc2ncccc21	≤ 2.5	≤ 0.5	≥ 10
CCC(Oc1cc(/C=C2\SC(=O)N(C)C2=O)c(Br)c(F)c1O)c1cnc(N)nc1 (stereo unspecified)	2.5 to 10	≤ 0.5	≥ 10
CN1C(=O)S/C(=C\c2cc(O)c(O)cc2Br)C1=O	2.5 to 10	≥ 10	–
CCOc1cc(/C=C2\Sc3ncccc3C2=O)c(Br)cc1O	2.5 to 10	≤ 0.5	–
CN1C(=O)S/C(=C\c2cc(OC(F)(F)F)c(O)cc2Br)C1=O	≤ 2.5	≥ 10	2.5 to 10
CN1C(=O)S/C(=C\c2cc(OCc3cnc(NCCO)nc3)c(O)c(F)c2Br)C1=O	≤ 2.5	≤ 0.5	≥ 10
COc1cc(/C=C2\Sc3ncccc3C2=O)c(Br)c(F)c1O	2.5 to 10	≤ 0.5	≥ 10
CN1C(=O)S/C(=C\c2cc(OCc3cnc[nH]3)c(O)cc2Br)C1=O	2.5 to 10	≥ 10	≥ 10

SMILES	IC50 (Cyclic GMP-AMP synthase [1]) [µM]	IC50 (Cyclic GMP-AMP synthase [2]) [µM]	IC50 (Cyclic GMP-AMP synthase [3]) [µM]
CC(Oc1cc(/C=C2\SC(=O)N(C)C2=O)c(Br)c(F)c1O)c1cnc(N)nc1 (stereo unspecified)	≤ 2.5	≤ 0.5	–
[2H]C([2H])(Oc1cc(/C=C2\SC(=O)N(C)C2=O)c(Br)cc1O)c1cnc(N)nc1	≤ 2.5	≤ 0.5	≥ 10
CN1C(=O)S/C(=C\c2cc(OCc3cnc(Cl)nc3N)c(O)c(F)c2Br)C1=O	2.5 to 10	≤ 0.5	–
CN1C(=O)S/C(=C\c2cc(OCc3cnc(NCc4ccncc4)nc3)c(O)cc2Br)C1=O	2.5 to 10	≤ 0.5	≥ 10
CN1C(=O)S/C(=C\c2cc(OCc3cn(-c4ccncc4)nn3)c(O)cc2Br)C1=O	2.5 to 10	≥ 10	≥ 10
CN1C(=O)S/C(=C\c2cc(OCc3cnc(NCc4cccnc4)nc3)c(O)c(F)c2Br)C1=O	2.5 to 10	0.5 to 10	–
CN1C(=O)S/C(=C\c2cc(OCc3cn[nH]c3)c(O)cc2Br)C1=O	≤ 2.5	≤ 0.5	≥ 10
CC(Oc1cc(/C=C2\SC(=O)N(C)C2=O)c(Br)cc1O)c1cncnc1N (stereo unspecified)	2.5 to 10	≤ 0.5	≥ 10
CN1C(=O)S/C(=C\c2cc(OCCc3cnc(N)nc3)c(O)c(F)c2Br)C1=O	≤ 2.5	≤ 0.5	≥ 10
CN1C(=O)S/C(=C\c2cc(OCc3cncnc3N)c(O)cc2Br)C1=O	≤ 2.5	≤ 0.5	≥ 10
Cc1ncc(COc2cc(/C=C3\SC(=O)C(C)C3=O)c(Br)c(F)c2O)c(N)n1 (stereo unspecified)	2.5 to 10	≤ 0.5	–
CC(Oc1cc(/C=c2\sc3nccn3c2=O)c(Br)c(F)c1O)c1cnc(N)nc1 (stereo unspecified)	≥ 10	0.5 to 10	–
COc1cc(/C=C2\SC(=S)N(C)C2=O)c(Br)cc1O	2.5 to 10	≤ 0.5	–
Cc1nc(N)ncc1COc1cc(/C=C2\Sc3ncccc3C2=O)c(Br)cc1O	≤ 2.5	≤ 0.5	–
CN1C(=O)S/C(=C\c2cc(OCc3ccncc3)c(O)cc2Br)C1=O	≤ 2.5	0.5 to 10	–
O=C1/C(=C/c2cc(OCc3cnc(Cl)nc3)c(O)cc2Br)Sc2ncccc21	2.5 to 10	≤ 0.5	–
CN1C(=O)S/C(=C\c2cc(OCCc3cnc(N)nc3)c(O)cc2Br)C1=O	≤ 2.5	≤ 0.5	–
CC(Oc1cc(/C=C2\SC(=O)N(C)C2=O)c(Br)c(F)c1O)c1cncnc1N (stereo unspecified)	≥ 10	0.5 to 10	–
CC(Oc1cc(/C=C2\Sc3ncccc3C2=O)c(Br)cc1O)c1cnc(NCCO)nc1 (stereo unspecified)	2.5 to 10	≤ 0.5	–
CN1C(=O)S/C(=C\c2cc(OCc3cccc4[nH]ccc34)c(O)cc2Br)C1=O	2.5 to 10	0.5 to 10	–
Nc1ncc(COc2cc(/C=C3\Sc4ncccc4C3=O)c(Br)cc2O)c(C2CC2)n1	2.5 to 10	≤ 0.5	–
COc1cc(/C=C2\SC(=O)N(C)C2=O)c(Br)cc1NS(=O)(=O)c1ccccn1	2.5 to 10	≥ 10	–
COc1cc(/C=C2\Sc3ncccc3C2=O)c(Br)cc1O	2.5 to 10	≤ 0.5	–
C#CCOc1cc(/C=C2\SC(=O)N(C)C2=O)c(Br)cc1O	2.5 to 10	0.5 to 10	–

— ChEMBL document CHEMBL4418308, “cGAS ANTAGONIST COMPOUNDS” (2017)
